In patent US20090029992A1, “SUBSTITUTED PYRAZOLE COMPOUNDS” (priority 2007, published 2009) one finds IC50 data, which are given here for 21 compounds.

What all share (assay type): biochemical
In experiment [1] the target is T1, Aurora B kinase (Homo sapiens, UniProt Q96GD4).
T1 construct: purchased BPS Biosciences, San Diego, Calif
Nature of the experiment: Aurora B (Aurora 1) inhibition assay. To be noted: ATP 50 μM, 16 h. Here is the method: Compounds were tested for their potency against recombinant Aurora A (Upstate, Lake Placid, N.Y.) using the PanVera Z′-Lyte kinase assay kit—Ser/Thr 1 peptide (Invitrogen, Carlsbad, Calif.). Assays were carried out in kinase assay buffer (50 mM HEPES, pH 7.5, 10 mM MgCl2, 5 mM EGTA, 0.05% Brij-35, 2 mM DTT). Test compounds were initially dissolved in DMSO at 100× the highest tested concentration, then serially diluted to 4× test concentrations in kinase assay buffer. Next, Aurora A (final concentration 200-500 ng/mL), Z′-Lyte Ser/Thr 1 peptide (final concentration 2 μM) and ATP (final concentration 10 μM) were added according to the manufacturer's instructions. Assays were carried out in half-area 96-well white polystyrene assay plates (Corning, Corning, N.Y.) in a final volume of 20 μl. The reaction was allowed to proceed for 1 h at room temperature in the dark, at which point the development reagent and stop reagent were added according to the manufacturer's instructions. Coumarin (Ex. 400 nm, Em. 465 nm) and fluorescein (Ex. 400 nm, Em. 565 nm) fluorescence values were measured on a SpectraFluor Plus plate reader (Tecan, Durham, N.C.). The emission ratio (coumarin/fluorescein) was determined and used to calculate the percent phosphorylation for each well. Wells containing substrate but no kinase and wells containing a phosphopeptide control were used to set 0% and 100% phosphorylation values, respectively. Typically 20-40% of the substrate was phosphorylated in wells without inhibitor. Dose-response curves of relative Aurora A activity vs. inhibitor concentration were plotted with Grafit (Erithacus Software, Horley, Surrey, UK).
Assays for Aurora B kinase inhibition were carried out similarly to those for Aurora A kinase (see above) with the following modifications. Aurora B kinase (BPS Biosciences, San Diego, Calif.) was used as the enzyme, at a concentration was 2.5 μg/mL. The ATP concentration was 50 μM, and the kinase reaction was allowed to proceed for 16 h. Sodium orthovanadate (20 μM) was added to the buffer to inhibit contaminating phosphatases.

In experiment [2] the target is T2, N-terminal His-tagged human Src (Homo sapiens, UniProt P12931).
T2 construct: His (N); purchased Upstate USA Inc, 706 Forest Street, Charlottesville, Va
Nature of the experiment: Src kinase inhibition assay (33P-ATP filter assay).

For experiment [3], the target named is T3, N-terminal GST-tagged recombinant human Flt3, residues 564-end (Homo sapiens, UniProt P36888).
T3 construct: recombinant human Flt3, residues 564-end; GST (N); purchased Upstate USA Inc, 706 Forest Street, Charlottesville, Va
T3 sequence (P36888 564-993 limits assumed): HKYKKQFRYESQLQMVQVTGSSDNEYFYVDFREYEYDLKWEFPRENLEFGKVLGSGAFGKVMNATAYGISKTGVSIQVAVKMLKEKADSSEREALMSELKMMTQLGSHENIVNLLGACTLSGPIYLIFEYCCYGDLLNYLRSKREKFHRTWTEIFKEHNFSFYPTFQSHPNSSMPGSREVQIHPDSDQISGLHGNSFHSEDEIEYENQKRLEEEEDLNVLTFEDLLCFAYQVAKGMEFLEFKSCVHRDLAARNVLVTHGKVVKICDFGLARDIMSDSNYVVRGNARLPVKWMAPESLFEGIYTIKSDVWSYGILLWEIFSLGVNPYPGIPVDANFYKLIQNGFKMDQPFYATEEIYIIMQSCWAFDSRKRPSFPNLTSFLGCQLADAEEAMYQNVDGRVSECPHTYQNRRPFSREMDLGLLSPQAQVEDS
Description: Flt3 kinase inhibition assay (33P-ATP filter assay). The conditions noted are these: 40 minutes at room temperature. In outline: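 Serial compound dilutions incubated 40 min at room temperature with 5-10 mU Flt3 kinase, 50 μM peptide substrate and [γ-33P]ATP/10 mM magnesium acetate, pH 7.0. Phosphoric acid stop, filter capture and scintillation counting; activity compared with uninhibited reactions.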

Setting [4] is: group with IC50 greater than 100 nM.

T1 sequence (Q96GD4 whole entry): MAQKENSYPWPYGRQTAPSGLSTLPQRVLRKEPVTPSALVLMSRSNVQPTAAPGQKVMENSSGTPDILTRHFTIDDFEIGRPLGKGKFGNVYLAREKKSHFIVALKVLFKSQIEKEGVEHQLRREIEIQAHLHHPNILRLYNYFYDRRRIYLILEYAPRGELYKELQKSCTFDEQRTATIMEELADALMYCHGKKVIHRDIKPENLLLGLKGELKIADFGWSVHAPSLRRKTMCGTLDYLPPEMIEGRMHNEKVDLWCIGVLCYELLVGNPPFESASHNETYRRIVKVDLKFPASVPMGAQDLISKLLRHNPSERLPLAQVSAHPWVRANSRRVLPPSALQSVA
T2 sequence (P12931 whole entry): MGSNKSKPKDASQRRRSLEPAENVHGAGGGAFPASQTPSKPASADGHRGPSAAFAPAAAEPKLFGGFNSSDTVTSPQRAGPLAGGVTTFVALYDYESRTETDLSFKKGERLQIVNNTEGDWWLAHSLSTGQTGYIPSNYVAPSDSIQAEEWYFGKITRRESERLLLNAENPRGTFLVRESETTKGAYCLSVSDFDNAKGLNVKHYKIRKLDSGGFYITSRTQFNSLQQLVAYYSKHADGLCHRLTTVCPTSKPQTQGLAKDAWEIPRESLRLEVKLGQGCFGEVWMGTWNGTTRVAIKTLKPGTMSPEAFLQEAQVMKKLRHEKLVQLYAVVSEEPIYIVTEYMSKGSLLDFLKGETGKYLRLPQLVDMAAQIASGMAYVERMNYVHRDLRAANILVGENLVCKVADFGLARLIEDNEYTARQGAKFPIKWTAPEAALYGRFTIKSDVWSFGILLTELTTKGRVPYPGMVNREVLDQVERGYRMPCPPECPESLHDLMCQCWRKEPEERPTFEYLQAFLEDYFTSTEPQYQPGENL

On to `Cc1cc(Nc2cc(N3CCN(C)CC3)nc(-c3cccc(C#N)c3)n2)n[nH]1` [Example 163, 3-(4-(5-methyl-1H-pyrazol-3-ylamino)-6-(4-methylpiperazin-1-yl)pyrimidin-2-yl)benzonitrile], for which the IC50 in experiment [1] was at most 1000 nM; in experiment [2] (40 minutes at room temperature) it was at most 100 nM; in experiment [3], at most 100 nM.
In the case of `Cc1cc(Nc2cc(NC3CCOCC3)nc(-c3cc4ccccc4o3)n2)n[nH]1` [Compound 15, 2-(benzofuran-2-yl)-N^4-(tetrahydro-2H-pyran-4-yl)-N^6-(5-methyl-1H-pyrazol-3-yl)-pyrimidine-4,6-diamine], the half-maximal inhibitory concentration (IC50) in experiment [1] is at most 1000 nM; in experiment [2] (40 minutes at room temperature) it was at most 100 nM; in experiment [3], at most 100 nM.
For the compound `Cc1cc(Nc2cc(N3CCN(C)CC3)nc(-c3cccc(Cl)c3)n2)n[nH]1` [Compound 36, 2-(3-chlorophenyl)-N-(5-methyl-1H-pyrazol-3-yl)-6-(4-methylpiperazin-1-yl)pyrimidin-4-amine], the results for the IC50 in experiment [1], in experiment [2] (40 minutes at room temperature) and in experiment [3] were at most 1000 nM, at most 100 nM and at most 100 nM, respectively.
With `Cc1cc(Nc2cc(N3CCN(C)CC3)nc(-c3ccccc3)n2)n[nH]1` [Compound 8, N-(5-methyl-1H-pyrazol-3-yl)-6-(4-methylpiperazin-1-yl)-2-phenyl pyrimidin-4-amine], the IC50 in experiment [1] was at most 1000 nM; in experiment [2] (40 minutes at room temperature), at most 100 nM; in experiment [3] it was at most 100 nM.
Regarding `Cc1cc(Nc2cc(N3CCN(C)CC3)nc(-c3cccc(F)c3)n2)n[nH]1` [Compound 33, 2-(3-fluorophenyl)-N-(5-methyl-1H-pyrazol-3-yl)-6-(4-methylpiperazin-1-yl)pyrimidin-4-amine], the figures for the IC50 in experiment [1], in experiment [2] (40 minutes at room temperature) and in experiment [3] were at most 1000 nM, at most 100 nM and at most 100 nM, respectively.
For `COC(=O)c1cccc(-c2nc(Nc3cc(C)[nH]n3)cc(N3CCN(C)CC3)n2)c1` [Example 166, methyl 3-(4-(5-methyl-1H-pyrazol-3-ylamino)-6-(4-methylpiperazin-1-yl)pyrimidin-2-yl)benzoate], the IC50 in experiment [1] was at most 1000 nM; in experiment [2] (40 minutes at room temperature), at most 100 nM; in experiment [3] it was at most 100 nM.
Consider `Cc1cc(Nc2cc(N3CCN(C)CC3)nc(-c3ccc4c(c3)OCO4)n2)n[nH]1` [Example 139, 2-(benzo[d][1,3]dioxol-5-yl)-N-(5-methyl-1H-pyrazol-3-yl)-6-(4-methylpiperazin-1-yl)pyrimidin-4-amine], for which the IC50 in experiment [1] is at most 1000 nM; in experiment [2] (40 minutes at room temperature), at most 100 nM; in experiment [3] it was at most 100 nM.
Take `COc1cccc(-c2nc(Nc3cc(C)[nH]n3)cc(N3CCN(C)CC3)n2)c1` [Compound 42, 2-(3-methoxyphenyl)-N-(5-methyl-1H-pyrazol-3-yl)-6-(4-methylpiperazin-1-yl)pyrimidin-4-amine]: the IC50 is at most 1000 nM in experiment [1], at most 100 nM in experiment [2] (40 minutes at room temperature) and at most 100 nM in experiment [3].
Consider `Cc1cc(Nc2cc(N3CCN(C)CC3)nc(-c3cccc(-c4ccccc4)c3)n2)n[nH]1` [Compound 16, 2-(biphenyl-3-yl)-N-(5-methyl-1H-pyrazol-3-yl)-6-(4-methylpiperazin-1-yl)pyrimidin-4-amine], for which the half-inhibitory concentration (IC50) in experiment [1] is at most 1000 nM; in experiment [2] (40 minutes at room temperature), at most 100 nM; in experiment [3], at most 100 nM.
Consider `CCOc1cccc(-c2nc(Nc3cc(C)[nH]n3)cc(N3CCN(C)CC3)n2)c1` [Example 190, 2-(3-ethoxyphenyl)-N-(5-methyl-1H-pyrazol-3-yl)-6-(4-methylpiperazin-1-yl)pyrimidin-4-amine], for which the IC50 in experiment [1] was at most 1000 nM; in experiment [2] (40 minutes at room temperature), at most 100 nM; in experiment [3] it was at most 100 nM.
Regarding `Cc1cc(Nc2cc(N3CCN(C)CC3)nc(-c3ccc4c(c3)OCCO4)n2)n[nH]1` [Example 137, 2-(2,3-dihydrobenzo[b][1,4]dioxin-6-yl)-N-(5-methyl-1H-pyrazol-3-yl)-6-(4-methylpiperazin-1-yl)pyrimidin-4-amine], the IC50 in experiment [1] was at most 1000 nM; in experiment [2] (40 minutes at room temperature) it was at most 100 nM; in experiment [3], at most 100 nM.
As to `Cc1cc(Nc2cc(NC3CCOCC3)nc(-c3cccc(F)c3)n2)n[nH]1` [Compound 20, 2-(3-fluorophenyl)-N^4-(5-methyl-1H-pyrazol-3-yl)-N^6-(tetrahydro-2H-pyran-4-yl)pyrimidine-4,6-diamine], the IC50 in experiment [1] is at most 1000 nM; in experiment [2] (40 minutes at room temperature) it was at most 100 nM; in experiment [3] it was at most 100 nM.
Regarding `Cc1cc(Nc2cc(NC3CCOCC3)nc(-c3cccc(N(C)C)c3)n2)n[nH]1` [Compound 74, 2-(3-(dimethylamino)phenyl)-N^4-(5-methyl-1H-pyrazol-3-yl)-N^6-(tetrahydro-2H-pyran-4-yl)pyrimidine-4,6-diamine], the values for the IC50 in experiment [1], in experiment [2] (40 minutes at room temperature) and in experiment [3] were at most 1000 nM, at most 100 nM and at most 100 nM, respectively.
With `Cc1cc(Nc2cc(NC3CCOCC3)nc(-c3ccc4c(c3)OCCO4)n2)n[nH]1` [Example 130, 2-(2,3-dihydrobenzo[b][1,4]dioxin-6-yl)-N^4-(5-methyl-1H-pyrazol-3-yl)-N^6-(tetrahydro-2H-pyran-4-yl)pyrimidine-4,6-diamine], the concentration for half-maximal inhibition (IC50) in experiment [1] is at most 1000 nM; in experiment [2] (40 minutes at room temperature), at most 100 nM; in experiment [3] it was at most 100 nM.
Consider `CC(=O)c1cccc(-c2nc(Nc3cc(C)[nH]n3)cc(N3CCN(C)CC3)n2)c1` [Example 165, 1-(3-(4-(5-methyl-1H-pyrazol-3-ylamino)-6-(4-methylpiperazin-1-yl)pyrimidin-2-yl)phenyl)ethanone], for which the half-maximal inhibitory concentration (IC50) is at most 1000 nM in experiment [1] and at most 100 nM in experiment [3].
Take `Cc1cc(Nc2cc(N3CCN(C)CC3)nc(-c3cccc(C(F)(F)F)c3)n2)n[nH]1` [Compound 101, N-(5-methyl-1H-pyrazol-3-yl)-6-(4-methylpiperazin-1-yl)-2-(3-(trifluoromethyl)phenyl)pyrimidin-4-amine]: the half-inhibitory concentration (IC50) in experiment [2] (setting [4]) is at most 1000 nM; in experiment [3], at most 100 nM.
For `Cc1ccc(F)c(-c2nc(Nc3cc(C)[nH]n3)cc(N3CCN(C)CC3)n2)c1` [Example 193, 2-(2-fluoro-5-methylphenyl)-N-(5-methyl-1H-pyrazol-3-yl)-6-(4-methylpiperazin-1-yl)pyrimidin-4-amine], the IC50 in experiment [2] (40 minutes at room temperature) and in experiment [3] was at most 100 nM each time.
Take `CCc1ccccc1-c1nc(Nc2cc(C)[nH]n2)cc(N2CCN(C)CC2)n1` [Example 175, 2-(2-ethylphenyl)-N-(5-methyl-1H-pyrazol-3-yl)-6-(4-methylpiperazin-1-yl)pyrimidin-4-amine]: the IC50 was at most 1000 nM in experiment [2] (setting [4]) and at most 100 nM in experiment [3].
As for `Cc1cc(Nc2cc(N3CCN(C)CC3)nc(-c3cc(F)ccc3C)n2)n[nH]1` [Example 196, 2-(5-fluoro-2-methylphenyl)-N-(5-methyl-1H-pyrazol-3-yl)-6-(4-methylpiperazin-1-yl)pyrimidin-4-amine], the IC50 in experiment [2] (40 minutes at room temperature) and in experiment [3] was at most 100 nM in each case.
For the compound `Cc1cc(Nc2cc(NC3CCOCC3)nc(-c3cc(F)ccc3F)n2)n[nH]1` [Example 185, 2-(2,5-difluorophenyl)-N^4-(5-methyl-1H-pyrazol-3-yl)-N^6-(tetrahydro-2H-pyran-4-yl)pyrimidine-4,6-diamine], the IC50 in experiment [2] (setting [4]) was at most 1000 nM; in experiment [3], at most 100 nM.
On to `Cc1cc(Nc2cc(N3CCN(C)CC3)nc(-c3ccc(F)cc3)n2)n[nH]1` [Compound 32, 2-(4-fluorophenyl)-N-(5-methyl-1H-pyrazol-3-yl)-6-(4-methylpiperazin-1-yl)pyrimidin-4-amine], for which the IC50 in experiment [2] (40 minutes at room temperature) and in experiment [3] was at most 100 nM in each case.
